Where two headings read alike, the source gives them in different places.
Experiments:
Assay type in all cases: cell-based, human
[1] = test system: HTT mRNA; assay: RT-qPCR splicing assay, HTT canonical junction (CJ) and alternative junction (AJ) mRNA; settings: Homo sapiens; for AC50: increase in HTT alternative junction (AJ) mRNA, read-out: HTT AJ AC50
Method in brief: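 24 h treatment, 37 °C/5% CO2; A673 or K562; 11-pt 3-fold series, top 10 uM final; DMSO ≤0.25%. Cell lysis with DNase I, then 1-step RT-qPCR. Housekeeping normalization: PPIA (A673), GAPDH or GUSB (K562).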

[2] = test system: Target C; assay: HiBiT protein abundance assay, Target C (Promega Nano-Glo HiBiT Lytic Detection System, knock-in K562 cell line); settings: Homo sapiens, K562, 24 h, HiBiT K562 cell line, 24 hours, top dose 10 μM; read-out: Effect on protein abundance, Target C (IC50 category)
Method in brief: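 Knock-in K562 cells carrying HiBiT-tagged Target C, 10,000 per well, treated 24 h at 37 °C with 10-point threefold dilutions (top 10 μM final, ≤0.25% DMSO). Lytic HiBiT luminescence read; response normalised to unmodified K562 and DMSO controls, four-parameter fit interpolated at 50% for IC50.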

[3] = test system: SMN2 mRNA; assay: RT-qPCR splicing assay, SMN2 canonical junction (CJ) mRNA; settings: Homo sapiens; Table 5 panel; canonical junction qPCR; compound concentration having 50% response in CJ decrease; read-out: SMN2 IC50 (decrease in CJ mRNA levels)
Method in brief: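 Exposure: 24 h, 37 °C, 11-point 3-fold dilutions from 10 uM final, DMSO at or below 0.25%, in A673 or K562 cells. Detection: cell-lysate RT-qPCR of canonical junction mRNA relative to GAPDH, GUSB or PPIA.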

[4] = decrease in HTT canonical junction (CJ) mRNA, RT-qPCR, read-out: HTT CJ IC50
[5] = Table 5 panel, canonical junction qPCR, compound concentration having 50% response in CJ decrease, read-out: HTT IC50 (decrease in CJ mRNA levels)

Structure (SMILES)	IC50 [1, 4]	AC50 ([1]; RT-qPCR)	IC50 [1, 5]	IC50 [2]	IC50 [3]
CN1CCN(c2ccc3c(=O)n(-c4ccc5nn(C)cc5c4)cnc3c2)CC1 [Compound 152]	> 10000 nM	> 10000 nM	> 10000 nM	> 10000 nM	> 10000 nM
Cc1cn2nc(-c3ccc4c(=O)n(C5CCNC(C)(C)C5)ncc4c3)cc(C)c2n1 (stereo not shown) [Compound 279]	100 to 1000 nM	100 to 1000 nM	100 to 1000 nM	< 100 nM	< 100 nM
CNc1cc(-c2cn3cc(C)nc3c(C)n2)cc2ncn(C3CCNCC3)c(=O)c12 [Compound 360, 7-{2,8-dimethylimidazo[1,2-a]pyrazine-6-yl}-5-(methylamino)-3-(piperidin-4-yl)quinazolin-4-one]	> 10000 nM	> 10000 nM	> 10000 nM	> 10000 nM	1000 to 10000 nM
Cc1cn2nc(-c3ccc4c(=O)n(C5CCN(C)CC5)cnc4c3)cc2c(C)n1 [Compound 303]	1000 to 10000 nM	1000 to 10000 nM	1000 to 10000 nM	1000 to 10000 nM	100 to 1000 nM
Cc1cn2cc(-c3cc(F)c4c(=O)n(C5CCCNCC5)cnc4c3)cc(F)c2n1 (stereo not shown) [Compound 353, 3-(azepan-4-yl)-5-fluoro-7-{8-fluoro-2-methylimidazo[1,2-a]pyridin-6-yl}quinazolin-4-one]	100 to 1000 nM	100 to 1000 nM	100 to 1000 nM	1000 to 10000 nM	< 100 nM
Cc1cn2nc(-c3cc(F)c4c(=O)n(C5CCNCC5)ccc4c3)cc(C)c2n1 [Compound 322]	< 100 nM	< 100 nM	< 100 nM	< 100 nM	< 100 nM
Cc1cn2cc(-c3cc(F)c4c(=O)n([C@H]5CCN[C@@H](C)C5)cnc4c3)cc(F)c2n1 (relative stereo) [Compound 343, cis-5-fluoro-7-(8-fluoro-2-methylimidazo[1,2-a]pyridin-6-yl)-3-(2-methylpiperidin-4-yl)quinazolin-4(3H)-one]	100 to 1000 nM	100 to 1000 nM	100 to 1000 nM	100 to 1000 nM	< 100 nM
Cc1cn2nc(-c3cc(F)c4c(=O)n(C5CCNC6(CC6)C5)ncc4c3)cc(C)c2n1 (stereo not shown) [Compound 312]	< 100 nM	< 100 nM	< 100 nM	< 100 nM	< 100 nM
Cc1nc2c(F)cc(-c3ccc4c(=O)n(C5CCN(C)CC5)cnc4c3)cc2o1 [Compound 300]	1000 to 10000 nM	100 to 1000 nM	100 to 1000 nM	1000 to 10000 nM	< 100 nM
Cn1cc2cc(-n3cnc4cc(C5=CCNCC5)ccc4c3=O)ccc2n1 [Compound 158]	> 10000 nM	> 10000 nM	> 10000 nM	1000 to 10000 nM	> 10000 nM
Cc1cc(-c2ccc3c(=O)n(C4CCN(C)CC4)cnc3c2)cc2cn(C)nc12 [Compound 156]	1000 to 10000 nM	1000 to 10000 nM	1000 to 10000 nM	> 10000 nM	100 to 1000 nM
Cc1cn2cc(-c3ccc4c(=O)n(C5CCN(C)CC5)cnc4c3)nc2c(C)n1 [Compound 302]	1000 to 10000 nM	1000 to 10000 nM	1000 to 10000 nM	1000 to 10000 nM	100 to 1000 nM
Cc1ncc(-c2ccc3c(=O)n(C4CCNCC4)cnc3c2)cn1 [Compound 354, 7-(2-methylpyrimidin-5-yl)-3-(piperidin-4-yl)quinazolin-4(3H)-one]	1000 to 10000 nM	1000 to 10000 nM	1000 to 10000 nM	1000 to 10000 nM	1000 to 10000 nM
Cc1cn2cc(-c3ccc4c(=O)n([C@H]5CCN[C@H](C)C5)cnc4c3)cc(F)c2n1 [Compound 296]	100 to 1000 nM	100 to 1000 nM	100 to 1000 nM	100 to 1000 nM	< 100 nM
Cc1cn2cc(-c3cc(F)c4c(=O)n(C5CNCCC5=O)cnc4c3)cc(F)c2n1 (stereo not shown) [Compound 352, 5-fluoro-7-{8-fluoro-2-methylimidazo[1,2-a]pyridin-6-yl}-3-(4-oxopiperidin-3-yl)quinazolin-4-one]	> 10000 nM	> 10000 nM	> 10000 nM	> 10000 nM	> 10000 nM
Cc1cn2nc(-c3ccc4c(=O)n([C@H]5CCN(C)[C@H](C)C5)ncc4c3)cc(C)c2n1 [Compound 278]	< 100 nM	< 100 nM	< 100 nM	< 100 nM	< 100 nM
Cc1cn2nc(-c3ccc4c(c3)CCN([C@@H]3CCN[C@H](C)C3)C4=O)cc(C)c2n1 [Compound 281]	1000 to 10000 nM	1000 to 10000 nM	1000 to 10000 nM	1000 to 10000 nM	100 to 1000 nM

Source: patent publication US20250332173A1, “COMPOUNDS AND METHODS FOR MODULATING NUCLEIC ACID SPLICING” (REMIX THERAPEUTICS INC., priority 2021, published 2025)
